For the assay, the system named is CEM cells HIV-1 protection, formazan growth assay. Put plainly: NCI AIDS Antiviral Assay. As to conditions: for IC50: measured here: growth of uninfected CEM cells. On the procedure: The ability of compounds to protect human CEM cells from HIV-1 infection is measured as a screen for new compounds capable of inhibiting the HIV virus. Five concentrations of drug were tested on uninfected and infected cells and cell growth was measured using a soluble formazan assay. […] Compounds that provided at least 50% protection were retested. Compounds that provided at least 50% protection on retest were listed as moderately active. Compounds that reproducibly provided 100% protection were listed as confirmed active. […] Note that the inability to provide protection could be due to toxicity.

Where “and” joins values, the source holds several entries; their conditions need not be identical. Identical values can stand only once. Calls of active or inactive are those of the source.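 Rule for the calls: active = compounds giving half or more protection of infected cells from virus-caused growth loss, again on retest; inactive = the rest.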

As to `CC1=C(C(=O)Nc2cc(=O)n(C)c(=O)n2C)C(c2ccco2)C(C(=O)Nc2cc(=O)n(C)c(=O)n2C)=C(C)N1`, the EC50 was above 93.3 µM and the IC50 is above 93.3 µM.
For the molecule `COc1ccc(C(=O)C(CO)Oc2ccccc2OC)cc1OC` (stereo not drawn), the EC50 is above 759 µM and the half-maximal inhibitory concentration (IC50) amounted to 513 µM.
Take `CC(=O)NC1=C(C)C(=O)c2c(nc3n2CCC3OC(=O)c2ccccc2)C1=N` (stereo not drawn): the EC50 is above 200 µM and the IC50 stood at 0.912 µM.
The matching figures for `CCN=C(Nc1cccc(C2=NCCN2)c1)c1ccc(C(=NCC)Nc2cccc(C3=NCCN3)c2)cc1`: 145 µM and above 200 µM.
Regarding `c1ccc(CSSCc2ccccc2)cc1`, the result was inactive.
`C1=Nc2ccc(cc2)N=Cc2ccc(cc2)OCc2cccc(n2)COc2ccc1cc2`: the EC50 is above 100 µM and the IC50 is above 100 µM.
Consider `O=C(O)[C@H]1CCCN1C(=O)c1ccccc1SSc1ccccc1C(=O)N1CCC[C@H]1C(=O)O`, for which the EC50 was above 200 µM and the half-inhibitory concentration (IC50) was above 200 µM.
For `C[C@H]1[C@H](C)Oc2c3c(c4c(CO)cc(=O)oc4c2[C@H]1O)OC(C)(C)C=C3`, the EC50 was above 200 µM and the IC50 is above 200 µM.
For `Cc1cc(N(CCC#N)CCC#N)ccc1/C(N=Nc1ccc(Cl)cc1)=N\NC(=O)c1ccccc1`, the EC50 is above 200 µM and the IC50 stood at 21.4 µM.
For the molecule `COc1ccc(NC(=O)CC(=O)N2N=C(C)C(N=Nc3ccc(S(=O)(=O)c4ccc(N=NC5C(=O)N(C(=O)CC(=O)Nc6ccc(OC)cc6)N=C5C)cc4)cc3)C2=O)cc1` (stereo not drawn), the EC50 was above 100 µM and the IC50 was determined as 95.5 µM.
In the case of `O=c1c2cc(S(=O)(=O)Nc3ccc(Cl)cc3Cl)ccc2ncn1NS(=O)(=O)c1cccc2ccccc12`, the EC50 was above 200 µM and the IC50 stood at 33.1 µM.
On to `Brc1cccc(N=NN2CCCC2)c1`, for which the EC50 is above 200 µM and the IC50 was found to be 36.3 µM.
For the molecule `CC1OC(OC2C(O)C(O)C(N=C(N)N)C(O)C2N=C(N)N)C(OC2OC(CO)C(O)C(O)C2N(C)C=N)C1(O)CO` (stereo not drawn), the outcome was inactive.
Regarding `C=C1C(=O)OC2(C)CCC1CC1OC1(C)CCC=C(C)CCC2O` (stereo not drawn), the EC50 was above 389 µM and the IC50 was 32.4 µM.
The like results for `COC(=O)c1ccc(CO/N=C(\c2ccccc2)c2cccnc2)cc1` were, in that order, above 200 µM and 47.9 µM.
Consider `CCOC(=O)C(Cc1cccc2ccccc12)S(=O)(=O)c1ccc(C)cc1` (stereo not drawn), for which the EC50 is above 66.1 µM and the 50% inhibitory concentration (IC50) turned out to be 18.6 µM.
Take `COc1cccc(/C=C2\S/C(=N/Nc3nc(C)c(C)s3)NC2=O)c1O`: the EC50 is above 200 µM and the IC50 is 129 µM.
In the case of `COC(=O)C(=O)C(/C(=N/N)C(=O)Nc1ccccc1C(N)=O)c1nc2ccc([N+](=O)[O-])cc2[nH]c1=O` (stereo not drawn), the EC50 is above 501 µM and the IC50 is 204 µM.
As for `CNc1ccccc1S(=O)(=O)c1ccccc1Br`, the EC50 is above 200 µM and the IC50 worked out at 18.2 µM.
Consider `Cc1ccc(SCC(OCn2cnc3c(Cl)nc(N)nc32)[C@H](C)F)cc1` (stereo partly drawn), for which the EC50 was above 200 µM and the IC50 was found to be 24 µM.
For the molecule `Cc1cc(O)c(/C=N/c2nc(-c3ccc([N+](=O)[O-])cc3)cs2)c(=O)o1`, the EC50 is above 200 µM and the IC50 is above 200 µM.
For `CCOC(=O)C(CC(C)C)NC(=O)c1cc(SC#N)c(C)c2c1Nc1c(c(C)c3oc(=O)c(C)nc3c1C(=O)NC(CC(C)C)C(=O)OCC)O2` (stereo not drawn), the EC50 was above 5.01 µM and the half-inhibitory concentration (IC50) is above 5.01 µM.
As to `Cc1c(-c2ccccc2)oc2c(C(=O)OCCN3CCCCC3)cccc2c1=O`, the outcome was inactive.
On to `N.N.NCCCCCN.O=C([O-])CC(=O)[O-].O=C([O-])CC(=O)[O-].[Pt+4].[Pt+4]`, for which the EC50 was above 2140 µM and the IC50 was 6.76 µM.
Take `CCOC(=O)c1oc2cc3c(c4c2c1-c1ccccc1N4C)C=CC(C)(C)O3`: the EC50 is above 200 µM and the IC50 amounted to 120 µM.
The like results for `COc1cc2c(cc1O)CC1c3c(cc(O)c(OC)c3-2)CCN1C` (stereo not drawn) were, in that order, above 200 µM and 69.2 µM.
Consider `Cc1ccc(N2C(=O)/C(=c3\s/c(=C(/N)O)c(=N)n3-c3ccccc3)SC2=S)cc1`, for which the EC50 was above 4.57 µM and the half-inhibitory concentration (IC50) was above 4.57 µM.
As to `C=CCn1c2c(sc1=S)C(S)N=CN2` (stereo not drawn), the EC50 is above 107 µM and the IC50 came out at 42.7 µM.
`CCN(CC)CCNC(=O)c1cn2c(ccc3sc4ccccc4c(=O)c32)n1`: the EC50 was above 20 µM and the IC50 was determined as 1.1 µM.
For the molecule `COc1cc2c(c3oc4c(c(=O)c13)CCCC4)CCC(C)(C)O2`, the EC50 was above 56.2 µM and the IC50 stood at 23.4 µM.
Regarding `CN(C)C1C(=O)C(C(=O)NCNC2C(=O)N3C2SC(C)(C)C3C(=O)O)=C(O)C2(O)C(=O)C3=C(O)c4c(O)cccc4C(C)(O)C3CC12` (stereo not drawn), the EC50 is above 269 µM and the IC50 stood at 251 µM.
The matching figures for `CC1(C)CCC2(C)N(c3ccccc3)C(=O)ON12` (stereo not drawn): above 200 µM and above 200 µM.
As to `Cc1ccc(S(=O)(=O)n2c(-c3ccccc3)c(-c3ccccc3)c3ccccc32)cc1`, the EC50 was above 50.1 µM and the half-maximal inhibitory concentration (IC50) stood at 38.9 µM.
`COC(=O)C1CCc2c(OC)ccc(OC)c2C1=O` (stereo not drawn): the result was inactive.
Turning to `O=C(Nc1ccc(Cl)c(Cl)c1)n1ncc2ccc([N+](=O)[O-])cc21`, the EC50 is above 200 µM and the IC50 is 170 µM.
Turning to `CC(=O)Nc1[nH]c(=O)[nH]c(=O)c1N(C(C)=O)C(C)=O`, the EC50 is above 933 µM and the IC50 was above 933 µM.
For `Cc1cc(Cl)cc2c1NC(=O)C2(O)CC(=O)c1ccc(Br)cc1` (stereo not drawn), the EC50 was above 91.2 µM and the IC50 worked out at 70.8 µM.
On to `CCOC(=O)/C(=N/Nc1ccc(Cl)cc1)N1C(=S)C=C(C)NN(C)C1=S`, for which the EC50 was above 200 µM and the IC50 is above 200 µM.
Turning to `O=C1SC(c2ccccc2)(c2ccccc2)c2ccccc21`, the EC50 was above 4.79 µM and the IC50 was above 4.79 µM.
With `Fc1cccc(C=NC23CC4CC(CC(C4)C2)C3)c1`, the EC50 was above 52.5 µM and the IC50 was above 52.5 µM.
For `N#C/C(=C\c1cccc(C#N)c1)C(=O)c1ccccc1`, the EC50 was above 115 µM and the IC50 was 15.8 µM.
As to `CCC1N2CCCCC2[C@@H]2c3[nH]c4ccccc4c3CCN12` (stereo partly drawn), the EC50 is above 447 µM and the IC50 was found to be 389 µM.
On to `Cc1cccc(C)c1NC(=O)C(=O)CC(=O)c1cccc([N+](=O)[O-])c1`, for which the EC50 was above 525 µM and the IC50 is above 525 µM.
Take `O=C(Nc1cccc(O)c1)C(=O)C(C(=O)c1ccc(Cl)c(Cl)c1)C1OC(=O)c2ccccc21` (stereo not drawn): the EC50 was above 141 µM and the IC50 turned out to be 64.6 µM.
Turning to `CN(C)CCCN1C(=S)N(CCCN(C)C)c2c3ccccc3nc3c([N+](=O)[O-])ccc1c23`, the EC50 was 0.407 µM and the IC50 turned out to be 1.07 µM.
For `[N-]=[N+]=CC(=O)C1(C(=O)C=[N+]=[N-])CC1`, the EC50 is above 251 µM and the IC50 amounted to 240 µM.
As for `CCC1(O)CCCC2C3CCC4CC(=O)CCC4(C)C3C(=O)CC21C` (stereo not drawn), the EC50 is above 200 µM and the IC50 stood at 105 µM.
The matching figures for `NNC(=S)N/N=C(/C(=O)Nc1cc(Cl)ccc1Cl)C1C(=O)Nc2ccccc2S1=O` (stereo not drawn): above 513 µM and 257 µM.
In the case of `CC1=N/C(=C\c2cccc([N+](=O)[O-])c2)C(=O)O1`, the EC50 was above 562 µM and the IC50 was above 562 µM.
Regarding `OC/C=C/c1ccc(Cl)cc1`, the result was inactive.
As for `N=c1c2c(ncn1N)CCN(Cc1ccccc1)C2`, the EC50 is above 200 µM and the IC50 amounted to 30.9 µM.
Take `CC(CCc1ccccc1)NCC(O)n1c(/N=N/N(C)C)nc2c1c(=O)n(C)c(=O)n2C` (stereo not drawn): the EC50 is above 200 µM and the half-maximal inhibitory concentration (IC50) is above 200 µM.
For the molecule `O=C1NC(=O)C(=O)C(c2nc3ccccc3s2)C1=O`, the result was inactive.
Regarding `Oc1ccccc1-c1n[nH]c(-c2ccccc2O)n1`, the EC50 is above 200 µM and the half-inhibitory concentration (IC50) came to 1.38 µM.
On to `O=C(O)CCCCCCCc1cccc(OCCO)c1`, for which the EC50 was above 200 µM and the IC50 is above 200 µM.
`CCOC(=O)c1c2c(n3ccccc13)C(=O)C(C)(C(=O)OCC)S2` (stereo not drawn): the outcome was active.
As for `S=C(N/N=C(/c1ccccc1)c1ccccn1)Nc1ccc(Cl)cc1`, the EC50 is above 0.2 µM and the IC50 amounted to 0.123 µM.
Turning to `O=S(OC12CC3CC(CC(C3)C1)C2)c1cc(Cl)cc(Cl)c1OCc1ccccc1` (stereo not drawn), the outcome was inactive.
On to `Cn1cnc([N+](=O)[O-])c1Sc1nccn1-c1ccccc1`, for which the EC50 is above 832 µM and the IC50 came to 9.33 µM.
With `Cc1ccc2c(c1)nc1c3ccccc3[nH]n21`, the EC50 was above 5.89 µM and the IC50 is above 5.89 µM.
Turning to `N#C/C(=C\c1cccc(Cl)c1)C(=O)c1ccccc1`, the EC50 is above 112 µM and the IC50 came out at 55 µM.
As to `O=C1CN(O)C(c2ccccc2)=c2cc(Cl)ccc2=N1`, the EC50 is above 200 µM and the IC50 was above 200 µM.
Regarding `O=C(c1cc(=O)c2ccc(O)cc2o1)c1ccc(Cl)cc1Cl`, the EC50 was above 204 µM and the IC50 was found to be 18.6 µM.
For the molecule `C#[N+]CCOP(=O)(OCC1OC(n2cc(C)c(=O)[nH]c2=O)CC1N=[N+]=[N-])O[C@H]1CC[C@@]2(C)C(=CC[C@H]3[C@@H]4CC[C@H](C(C)/C=C/C(CC)C(C)C)[C@@]4(C)CC[C@@H]32)C1` (stereo partly drawn), the EC50 is 1.62 µM and 5.89 µM; the IC50 is above 200 µM.
In the case of `CC1=Nn2c(nnc2-c2ccccc2Cl)NC(C)(C)C1`, the EC50 is above 447 µM and the half-maximal inhibitory concentration (IC50) was 282 µM.
In the case of `CCOC(=O)C1C=C1C(C)(C)O` (stereo not drawn), the EC50 is above 151 µM and the IC50 is 135 µM.
The like results for `O=C(N/N=C\C(F)(F)F)c1ccncc1` were, in that order, above 200 µM and 3.55 µM.
The matching figures for `CCN1CC2(COC)C(O)CC(OC)C34C5CC6(O)C(O)C5C(O)(C(O)C6OC)C(C(OC)C23)C14` (stereo not drawn): above 200 µM and above 200 µM.

Broadly, the EC50 is the concentration giving half of the maximal effect. Usually IC50 stands for the concentration that gives 50% inhibition.

Values taken from PubChem BioAssay AID179 (DTP/NCI, 2004).
